pKi: −log10 of the molar value.
target: T1, histamine-3 receptor (Rattus norvegicus, UniProt Q9QYN8); assay: Histamine-3 receptor binding, (3H)-N-α-methylhistamine displacement in rat cortical membranes; settings: male Sprague-Dawley rat brain cortical membranes; (3H)-N-α-methylhistamine ~0.6 nM; 30 minutes at 25° C.; Cheng-Prusoff
T1 construct: from tissue; host or cells: male Sprague-Dawley rat brain cortex membranes
Method: Briefly, male Sprague-Dawley rat brain cortices were homogenized (1 g tissue/10 mL buffer) in 50 mM Tris-HCl/5 mM EDTA containing protease inhibitor cocktail (Calbiochem) using a polytron set at 20,500 rpm. Homogenates were centrifuged for 20 minutes at 40,000×g. The supernatant was decanted, and pellets were weighed. The pellet was resuspended by polytron homogenization in 40 mL 50 mM Tris-HCl/5 mM EDTA with protease inhibitors and centrifuged for 20 minutes at 40,000×g. […] Test compounds were dissolved in DMSO to provide 20 mM solution, serially diluted and then added to the incubation mixtures prior to initiating the incubation assay by addition of the membranes. Thioperamide (3 μM) was used to determine nonspecific binding. Binding incubations were conducted for 30 minutes at 25° C. and terminated by addition of 2 mL of ice cold 50 mM Tris-HCl (pH 7.7) and filtration through 0.3% polyethylenimine-soaked Unifilter plates (Packard). These filters were washed 4 additional times with 2 mL of ice-cold 50 mM Tris-HCl and dried for 1 hour. Radioactivity was determined using liquid scintillation counting techniques. Results were analyzed by Hill transformation and Ki values were determined using the Cheng-Prusoff equation.

T1 sequence (Q9QYN8 whole entry): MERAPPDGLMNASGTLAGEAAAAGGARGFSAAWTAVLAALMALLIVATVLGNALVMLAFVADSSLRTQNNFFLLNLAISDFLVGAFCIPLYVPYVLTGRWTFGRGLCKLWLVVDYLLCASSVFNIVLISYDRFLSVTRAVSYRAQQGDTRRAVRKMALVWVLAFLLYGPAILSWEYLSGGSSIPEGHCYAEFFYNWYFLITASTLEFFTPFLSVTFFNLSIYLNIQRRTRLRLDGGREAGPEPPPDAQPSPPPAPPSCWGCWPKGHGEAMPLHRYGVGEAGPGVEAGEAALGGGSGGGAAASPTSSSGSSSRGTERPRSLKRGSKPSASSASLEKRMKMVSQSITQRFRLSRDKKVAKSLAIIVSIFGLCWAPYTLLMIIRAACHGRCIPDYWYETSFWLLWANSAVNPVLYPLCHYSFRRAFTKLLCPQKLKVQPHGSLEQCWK

Compound | pKi
CN(C)[C@@H]1CCN(CCCOc2ccc(-c3ccc(C#N)cc3)cc2Cl)C1 [Example 171, 3′-chloro-4′-{3-[(3R)-3-(dimethylamino)-1-pyrrolidinyl]propoxy}-1,1′-biphenyl-4-carbonitrile] | 7.39
N#Cc1ccc(-c2ccc(OCCCN3CC[C@@H](NS(=O)(=O)c4cccc(C#N)c4)C3)cc2)cc1 [Example 34, 3-cyano-N-((3R)-1-{3-[(4′-cyano[1,1′-biphenyl]-4-yl)oxy]propyl}pyrrolidinyl)benzenesulfonamide] | 7.96
CC(=O)Nc1nc(C)c(S(=O)(=O)N[C@@H]2CCN(CCCOc3ccc(-c4ccc(C#N)cc4)cc3)C2)s1 [Example 39, N-(5-{[((3R)-1-{3-[(4′-cyano[1,1′-biphenyl]-4-yl)oxy]propyl}pyrrolidinyl)amino]sulfonyl}-4-methyl-1,3-thiazol-2-yl)acetamide] | 8.12
COc1ccc(OC)c(S(=O)(=O)N[C@@H]2CCN(CCCOc3ccc(C(=O)C4CC4)cc3)C2)c1 [Example 63, N-((3R)-1-{3-[4-(cyclopropylcarbonyl)phenoxy]propyl}pyrrolidinyl)-2,5-dimethoxybenzenesulfonamide] | 7.92
O=C(c1ccc(OCCCN2CC[C@@H](NS(=O)(=O)c3ccc(Cl)c(Cl)c3)C2)cc1)C1CC1 [Example 97, 3,4-dichloro-N-((3R)-1-{3-[4-(cyclopropylcarbonyl)phenoxy]propyl}pyrrolidinyl)benzenesulfonamide] | 8.17
O=C(c1ccc(OCCCN2CC[C@@H](NS(=O)(=O)c3ccccc3F)C2)cc1)C1CC1 [Example 68, N-((3R)-1-{3-[4-(cyclopropylcarbonyl)phenoxy]propyl}pyrrolidinyl)-2-fluorobenzenesulfonamide] | 8.55
Cc1cccc(S(=O)(=O)N[C@@H]2CCN(CCCOc3ccc(C(=O)C4CC4)cc3)C2)c1 [Example 91, N-((3R)-1-{3-[4-(cyclopropylcarbonyl)phenoxy]propyl}pyrrolidinyl)-3-methylbenzenesulfonamide] | 8.55
O=C(c1ccc(OCCCN2CC[C@@H](NS(=O)(=O)c3cccc(Cl)c3)C2)cc1)C1CC1 [Example 70, 3-chloro-N-((3R)-1-{3-[4-(cyclopropylcarbonyl)phenoxy]propyl}pyrrolidinyl)benzenesulfonamide] | 8.52
N#Cc1ccc(-c2ccc(OCCCN3CC[C@@H](NS(=O)(=O)c4cccc5cccnc45)C3)cc2)cc1 [Example 40] | 7.29
C=CCOC(=O)N[C@@H]1CCN(CCCOc2ccc(-c3ccc(C#N)cc3)cc2)C1 [Example 132, allyl (3R)-1-{3-[(4′-cyano[1,1′-biphenyl]-4-yl)oxy]propyl}pyrrolidinylcarbamate] | 7.13
N#Cc1ccc(-c2ccc(OCCCN3CC[C@@H](NS(=O)(=O)c4ccc(F)cc4F)C3)cc2)cc1 [Example 51] | 8.03
COc1ccc(S(=O)(=O)N[C@@H]2CCN(CCCOc3ccc(C(=O)C4CC4)cc3)C2)cc1OC [Example 86, N-((3R)-1-{3-[4-(cyclopropylcarbonyl)phenoxy]propyl}pyrrolidinyl)-3,4-dimethoxybenzenesulfonamide] | 8.74
CN(C(=O)c1csc(-c2cccnc2)n1)[C@@H]1CCN(CCCOc2ccc(-c3ccc(C#N)cc3)cc2)C1 [Example 123] | 8.25
CN(C)[C@@H]1CCN(CCCOc2ccc(-c3ccc(C#N)cc3)cc2I)C1 [Example 169, 4′-{3-[(3R)-3-(dimethylamino)-1-pyrrolidinyl]propoxy}-3 ′-iodo-1,1′-biphenyl-4-carbonitrile] | 6.69
CCCCOc1ccc(S(=O)(=O)N[C@@H]2CCN(CCCOc3ccc(-c4ccc(C#N)cc4)cc3)C2)cc1 [Example 41, 4-butoxy-N-((3R)-1-{3-[(4′-cyano[1,1′-biphenyl]-4-yl)oxy]propyl}pyrrolidinyl)benzenesulfonamide] | 7.32
N#Cc1ccc(S(=O)(=O)N[C@@H]2CCN(CCCOc3ccc(C(=O)C4CC4)cc3)C2)cc1 [Example 11, 4-cyano-N-((3R)-1-{3-[4-(cyclopropylcarbonyl)phenoxy]propyl}pyrrolidinyl)benzenesulfonamide] | 8.40
CN(C(=O)c1ccc(C#N)cc1)[C@@H]1CCN(CCCOc2ccc(-c3ccc(C#N)cc3)cc2)C1 [Example 120, 4-cyano-N-((3R)-1-{3-[(4′-cyano[1,1′-biphenyl]-4-yl)oxy]propyl}pyrrolidinyl)-N-methylbenzamide] | 8.00
CN(C(=O)N1CCOCC1)[C@@H]1CCN(CCCOc2ccc(-c3ccc(C#N)cc3)cc2)C1 [Example 118] | 8.24
O=C(c1ccc(OCCCN2CC[C@@H](NS(=O)(=O)c3ccc(F)c(Cl)c3)C2)cc1)C1CC1 [Example 65, 3-chloro-N-((3R)-1-{3-[4-(cyclopropylcarbonyl)phenoxy]propyl}pyrrolidinyl)-4-fluorobenzenesulfonamide] | 8.30
CN(C)C(=O)N(C(=O)N(C)C)[C@@H]1CCN(CCCOc2ccc(-c3ccc(C#N)cc3)cc2)C1 [Example 148] | 6.54

Compound | pKi
CC(=O)c1ccc(OCCCN2CC[C@@H](NC(=O)c3ccc(C#N)cc3)C2)cc1 [Example 14, N-{(3R)-1-[3-(4-acetylphenoxy)propyl]pyrrolidinyl}-4-cyanobenzamide] | 7.40
CC(C)S(=O)(=O)N[C@@H]1CCN(CCCOc2ccc(C(=O)C3CC3)cc2)C1 [Example 12, N-((3R)-1-{3-[4-(cyclopropylcarbonyl)phenoxy]propyl}pyrrolidinyl)-2-propanesulfonamide] | 7.15
O=C(c1ccc(OCCCN2CC[C@@H](NS(=O)(=O)c3ccccc3OC(F)(F)F)C2)cc1)C1CC1 [Example 89, N-((3R)-1-{3-[4-(cyclopropylcarbonyl)phenoxy]propyl}pyrrolidinyl)-2-(trifluoromethoxy)benzenesulfonamide] | 7.96
COc1ccc(S(=O)(=O)N[C@@H]2CCN(CCCOc3ccc(-c4ccccn4)cc3)C2)cc1 [Example 101, 4-methoxy-N-((3R)-1-{3-[4-(2-pyridinyl)phenoxy]propyl}pyrrolidinyl)benzenesulfonamide] | 6.75
N#Cc1ccc(-c2ccc(OCCCN3CC[C@@H](NS(=O)(=O)c4ccc(Cl)c(Cl)c4)C3)cc2)cc1 [Example 54, 3,4-dichloro-N-((3R)-1-{3-[(4′-cyano[1,1′-biphenyl]-4-yl)oxy]propyl}pyrrolidinyl)benzenesulfonamide] | 7.01
N#Cc1ccc(-c2ccc(OCCCN3CC[C@@H](NS(=O)(=O)c4cccs4)C3)cc2)cc1 [Example 36] | 7.92
CN(C)[C@@H]1CCN(CCCOc2c(F)cc(-c3ccc(C#N)cc3)cc2Cl)C1 [Example 174, 3′-chloro-4′-{3-[(3R)-3-(dimethylamino)-1-pyrrolidinyl]propoxy}-5′-fluoro-1,1′-biphenyl-4-carbonitrile] | 7.85
O=C(c1ccc(OCCCN2CC[C@@H](NS(=O)(=O)c3cc(C(F)(F)F)cc(C(F)(F)F)c3)C2)cc1)C1CC1 [Example 83, N-((3R)-1-{3-[4-(cyclopropylcarbonyl)phenoxy]propyl}pyrrolidinyl)-3,5-bis(trifluoromethyl)benzenesulfonamide] | 7.64
CN(C)[C@@H]1CCN(CCCOc2ccc(-c3ccc(C#N)c(F)c3)cc2)C1 [Example 166, 4′-{3-[(3R)-3-(dimethylamino)-1-pyrrolidinyl}propoxy]-3-fluoro-1,1′-biphenyl-4-carbonitrile] | 7.14
COc1ccc(OC)c(S(=O)(=O)N[C@@H]2CCN(CCCOc3ccc(-c4ccc(C#N)cc4)cc3)C2)c1 [Example 24] | 7.37
CC(=O)N[C@@H]1CCN(CCCOc2ccc(-c3ccc(C#N)cc3)cc2)C1 [Example 130] | 7.51
CN(C(=O)NC(C)(C)C)[C@@H]1CCN(CCCOc2ccc(-c3ccc(C#N)cc3)cc2)C1 [Example 117, N′-tert-butyl-N-((3R)-1-{3-[(4′-cyano[1,1′-biphenyl]-4-yl)oxy]propyl}pyrrolidinyl)-N-methylurea] | 7.35
CC(C)c1ccc(S(=O)(=O)N[C@@H]2CCN(CCCOc3ccc(-c4ccccn4)cc3)C2)cc1 [Example 102, 4-isopropyl-N-((3R)-1-{3-[4-(2-pyridinyl)phenoxy]propyl}pyrrolidinyl)benzenesulfonamide] | 6.95
N#Cc1ccc(-c2ccc(OCCCN3CC[C@@H](NS(=O)(=O)c4ccccc4OC(F)(F)F)C3)cc2)cc1 [Example 45] | 6.90
N#Cc1ccc(-c2ccc(OCCCN3CC[C@@H](NS(=O)(=O)c4ccccc4)C3)cc2)cc1 [Example 15] | 8.14
N#Cc1ccc(-c2ccc(OCCCN3CC[C@@H](NS(=O)(=O)c4ccc(F)c(Cl)c4)C3)cc2)cc1 [Example 26, 3-chloro-N-((3R)-1-{3-[(4′-cyano[1,1′-biphenyl]-4-yl)oxy]propyl}pyrrolidinyl)-4-fluorobenzenesulfonamide] | 7.24
N#Cc1ccc(C(=O)N[C@@H]2CCN(CCCOc3ccc(-c4ccc(C#N)cc4)cc3)C2)cc1 [Example 140, 4-cyano-N-((3R)-1-{3-[(4′-cyano[1,1′-biphenyl]-4-yl)oxy]propyl}pyrrolidinyl)benzamide] | 6.66
N#Cc1ccccc1S(=O)(=O)N[C@@H]1CCN(CCCOc2ccc(C(=O)C3CC3)cc2)C1 [Example 90, 2-cyano-N-((3R)-1-{3-[4-(cyclopropylcarbonyl)phenoxy]propyl}pyrrolidinyl)benzenesulfonamide] | 7.96
N#Cc1ccc(-c2ccc(OCCCN3CC[C@@H](NS(=O)(=O)c4ccc(OC(F)(F)F)cc4)C3)cc2)cc1 [Example 50] | 7.22
